From patent US20100056565A1, “Heterocyclic Derivatives as M3 Muscarinic Receptors” (priority 2007, published 2010)

Each compound was assayed against T1, Recombinant human M3 receptor (Homo sapiens, UniProt P20309) (assay: biochemical). Settings: SPA format; read-out: M3 Ki (SPA format).
T1 construct: expressed in transfected cells; host or cells: CHO-K1 cells (membranes)
T1 sequence (P20309 whole entry): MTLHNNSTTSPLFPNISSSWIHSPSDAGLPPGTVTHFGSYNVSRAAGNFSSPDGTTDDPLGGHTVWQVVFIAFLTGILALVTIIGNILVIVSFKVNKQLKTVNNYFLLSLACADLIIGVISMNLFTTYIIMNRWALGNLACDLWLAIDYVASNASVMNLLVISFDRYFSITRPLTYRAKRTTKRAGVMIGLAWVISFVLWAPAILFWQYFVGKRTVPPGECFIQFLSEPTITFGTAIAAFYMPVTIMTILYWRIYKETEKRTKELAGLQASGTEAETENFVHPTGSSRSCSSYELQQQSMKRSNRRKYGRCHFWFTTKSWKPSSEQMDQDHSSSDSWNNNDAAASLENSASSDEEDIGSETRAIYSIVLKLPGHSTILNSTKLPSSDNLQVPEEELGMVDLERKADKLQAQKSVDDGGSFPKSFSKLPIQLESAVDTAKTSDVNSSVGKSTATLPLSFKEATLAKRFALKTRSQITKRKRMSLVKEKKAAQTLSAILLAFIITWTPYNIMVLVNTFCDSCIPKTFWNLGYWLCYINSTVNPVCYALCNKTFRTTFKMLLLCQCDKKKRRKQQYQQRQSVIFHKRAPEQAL
Format: binding
With `OC(c1ccccc1)(c1ccccc1)c1ncc(C[N+]23CCC(CC2)[C@@H](Oc2cccc(F)c2)C3)o1` [Example 73, (R)-3-(3-Fluoro-phenoxy)-1-[2-(hydroxy-diphenyl-methyl)-oxazol-5-ylmethyl]-1-azonia-bicyclo[2.2.2]octane; bromide] the Ki was < 5 nM. For `OC(c1ccccc1)(c1ccccc1)c1ncc(C[N+]23CCC(CC2)[C@@H](Oc2cc(Cl)cc(Cl)c2)C3)o1` [Example 74, (R)-3-(3,5-dichloro-phenoxy)-1-[2-(hydroxy-diphenyl-methyl)-oxazol-5-ylmethyl]-1-azonia-bicyclo[2.2.2]octane; bromide], the Ki was > 20 nM. For `OC(c1ccccc1)(c1ccccc1)c1ncc(C[N+]23CCC(CC2)[C@@H](Oc2cccc(C(F)(F)F)c2)C3)o1` [Example 75, (R)-1-[2-[Hydroxy-diphenyl-methyl)-oxazol-5-ylmethyl]-3-(3-trifluoromethyl-phenoxy)-1-azonia-bicyclo[2.2.2]octane; bromide], the Ki was < 5 nM. `OC(c1ccccc1)(c1ccccc1)c1ncc(C[N+]23CCC(CC2)[C@@H](Oc2ccc(F)c(Cl)c2)C3)o1` [Example 76, (R)-3-(3-chloro-4-fluoro-phenoxy)-1-[2-(hydroxy-diphenyl-methyl)-oxazol-5-ylmethyl]-1-azonia-bicyclo[2.2.2]octane; bromide] was tested, and the Ki was < 5 nM. `OC(c1ccccc1)(c1ccccc1)c1ncc(C[N+]23CCC(CC2)[C@@H](Oc2cccc(Cl)c2Cl)C3)o1` [Example 77, (R)-3-(2,3-dichloro-phenoxy)-1-[2-(hydroxy-diphenyl-methyl)-oxazol-5-ylmethyl]-1-azonia-bicyclo[2.2.2]octane; bromide] was tested, and the Ki was > 20 nM. In the case of `OC(c1ccccc1)(c1ccccc1)c1ncc(C[N+]23CCC(CC2)[C@@H](Oc2ccc(Cl)c(Cl)c2)C3)o1` [Example 78, (R)-3-(3,4-dichloro-phenoxy)-1-[2-(hydroxy-diphenyl-methyl)-oxazol-5-ylmethyl]-1-azonia-bicyclo[2.2.2]octane; bromide], the Ki is reported as < 5 nM. In the case of `OC(c1ccccc1)(c1ccccc1)c1ncc(C[N+]23CCC(CC2)[C@@H](Oc2ccc4c(c2)OCO4)C3)o1` [Example 79, (R)-3-(Benzo[1,3]dioxal-5-yloxy)-1-[2-(hydroxy-diphenyl-methyl)-oxazol-5-ylmethyl]-1-azonia-bicyclo[2.2.2]octane; bromide], the Ki is reported as < 5 nM. `N#Cc1cccc(O[C@H]2C[N+]3(Cc4cnc(C(O)(c5ccccc5)c5ccccc5)o4)CCC2CC3)c1` [Example 80, (R)-3-(3-cyano-phenoxy)-1-[2-(hydroxy-diphenyl-methyl)-oxazol-5-ylmethyl]-1-azonia-bicyclo[2.2.2]octane; bromide] was tested, and the Ki was < 5 nM. `O[C@](c1ccccc1)(c1ncc(C[N+]23CCC(CC2)C(c2ccccc2)C3)o1)C1CCCCC1` (stereo partly drawn) [Example 88, 1-[2-((R)—Cyclohexyl-hydroxy-phenyl-methyl)-oxazol-5-ylmethyl]-3-phenyl-1-azonia-bicyclo[2.2.2]octane; bromide] was tested, and the Ki was 5 to 20 nM. `OC(c1ccccc1)(c1ccccc1)c1ncc(C[N+]23CCC(CC2)[C@H](COc2ccccc2)C3)o1` [Example 92, (S)-1-[2-(Hydroxy-diphenyl-methyl)-oxazol-5-ylmethyl]-3-phenoxymethyl-1-azonia-bicyclo[2.2.2]octane; bromide] gave a Ki of 5 to 20 nM. In the case of `OC(c1ccccc1)(c1ccccc1)c1noc(C[N+]23CCC(CC2)[C@H](COc2ccccc2)C3)n1` [Example 93, (S)-1-[3-(Hydroxy-diphenyl-methyl)-[1,2,4]oxadiazol-5-ylmethyl]-3-phenoxymethyl-1-azonia-bicyclo[2.2.2]octane; chloride], the Ki is reported as < 5 nM. `OC(c1ccccc1)(c1ccccc1)c1noc(C[N+]23CCC(CC2)[C@@H](Oc2cccc(F)c2)C3)n1` [Example 94, (R)-3-(3-Fluoro-phenoxy)-1-[3-(hydroxy-diphenyl-methyl)-[1,2,4]oxadiazol-5-ylmethyl]-1-azonia-bicyclo[2.2.2]octane; chloride] was tested, and the Ki was < 5 nM. For `O[C@](c1ccccc1)(c1ncc(C[N+]23CCC(CC2)[C@@H](OC2CCCCO2)C3)o1)C1CCCCC1` (stereo partly drawn) [Example 96, (R)-1-[2-((R)—Cyclohexyl-hydroxy-phenyl-methyl)-oxazol-5-ylmethyl]-3-(tetrahydro-pyran-2-yloxy)-1-azonia-bicyclo[2.2.2]octane; bromide], the Ki was < 5 nM. In the case of `OC(c1ccccc1)(c1ccccc1)c1ncc(C[N+]23CCC(CC2)[C@@H](Sc2ccc(F)cc2)C3)o1` [Example 97, (R)-3-(4-Fluoro-phenylsulfanyl)-1-[2-(hydroxy-diphenyl-methyl)-oxazol-5-ylmethyl]-1-azonia-bicyclo[2.2.2]octane; bromide], the Ki is reported as < 5 nM. With `OC(c1ccccc1)(c1ccccc1)c1ncc(C[N+]23CCC(CC2)[C@@H](Sc2cccc(F)c2)C3)o1` [Example 98, (R)-3-(3-Fluoro-phenylsulfanyl)-1-[2-(hydroxy-diphenyl-methyl)-oxazol-5-ylmethyl]-1-azonia-bicyclo[2.2.2]octane; bromide] the Ki was < 5 nM. With `OC(c1ccccc1)(c1ccccc1)c1ncc(C[N+]23CCC(CC2)[C@@H](Sc2ccc(F)c(F)c2)C3)o1` [Example 99, (R)-3-(3,4-Difluoro-phenylsulfanyl)-1-[2-(hydroxy-diphenyl-methyl)-oxazol-5-ylmethyl]-1-azonia-bicyclo[2.2.2]octane; bromide] the Ki was < 5 nM. For `O[C@](c1ccccc1)(c1ncc(C[N+]23CCC(CC2)[C@@H](CSc2ccccc2)C3)o1)C1CCCCC1` [Example 100, (R)-1-[2-((R)—Cyclohexyl-hydroxy-phenyl-methyl)-oxazol-5-ylmethyl]-3-phenylsulfanylmethyl-1-azonia-bicyclo[2.2.2]octane; bromide], the Ki was < 5 nM. In the case of `OC(c1ccccc1)(c1ccccc1)c1ncc(C[N+]23CCC(CC2)[C@@H](Oc2cccs2)C3)o1` [Example 102, (R)-1-[2-(Hydroxy-diphenyl-methyl)-oxazol-5-ylmethyl]-3-(thiophen-2-yloxy)-1-azonia-bicyclo[2.2.2]octane; bromide], the Ki is reported as 5 to 20 nM. `OC(c1ccccc1)(c1ccccc1)c1noc(C[N+]23CCC(CC2)[C@@H](Oc2ccccc2)C3)n1` [Example 103, (R)-1-[3-(Hydroxy-diphenyl-methyl)-[1,2,4]oxadiazol-5-ylmethyl]-3-phenoxy-1-azonia-bicyclo[2.2.2]octane; chloride] was tested, and the Ki was < 5 nM. For `Cc1ccc(O[C@H]2C[N+]3(Cc4nc(C(O)(c5ccccc5)c5ccccc5)no4)CCC2CC3)cc1Cl` [Example 104, (R)-3-(3-Chloro-4-methyl-phenoxy)-1-[3-(hydroxy-diphenyl-methyl)-[1,2,4]oxadiazol-5-ylmethyl]-1-azonia-bicyclo[2.2.2]octane; chloride], the Ki was < 5 nM. `O[C@](c1ccccc1)(c1ncc(C[N+]23CCC(CC2)[C@@H](Sc2cccc(F)c2)C3)o1)C1CCCCC1` [Example 105, (R)-1-[2-((R)—Cyclohexyl-hydroxy-phenyl-methyl)-oxazol-5-ylmethyl]-3-(3-fluoro-phenylsulfanyl)-1-azonia-bicyclo[2.2.2]octane; bromide] was tested, and the Ki was < 5 nM. In the case of `O[C@](c1ccccc1)(c1ncc(C[N+]23CCC(CC2)[C@@H](CSc2ccc(F)cc2)C3)o1)C1CCCCC1` [Example 106, (R)-1-[2-((R)—Cyclohexyl-hydroxy-phenyl-methyl)-oxazol-5-ylmethyl]-3-(4-fluoro-phenylsulfanylmethyl)-1-azonia-bicyclo[2.2.2]octane; bromide], the Ki is reported as < 5 nM. With `O[C@](c1ccccc1)(c1ncc(C[N+]23CCC(CC2)[C@@H](CSc2ccc(Cl)cc2)C3)o1)C1CCCCC1` [Example 107, (R)-3-(4-Chloro-phenylsulfanylmethyl)-1-[2-(R)cyclohexyl-hydroxy-phenyl-methyl)-oxazol-5-ylmethyl]-1-azonia-bicyclo[2.2.2]octane; bromide] the Ki was < 5 nM. For `O[C@](c1ccccc1)(c1ncc(C[N+]23CCC(CC2)[C@@H](CSc2cccc(F)c2)C3)o1)C1CCCCC1` [Example 108, (R)-1-[2-((R)—Cyclohexyl-hydroxy-phenyl-methyl)-oxazol-5-ylmethyl]-3-(3-fluoro-phenylsulfanylmethyl)-1-azonia-bicyclo[2.2.2]octane; bromide], the Ki was < 5 nM. In the case of `O[C@](c1ccccc1)(c1ncc(C[N+]23CCC(CC2)[C@H](CSc2ccc(F)cc2)C3)o1)C1CCCCC1` [Example 109, (S)-1-[2-((R)—Cyclohexyl-hydroxy-phenyl-methyl)-oxazol-5-ylmethyl]-3-(4-fluoro-phenylsulfanylmethyl)-1-azonia-bicyclo[2.2.2]octane; bromide], the Ki is reported as < 5 nM. For `O[C@](c1ccccc1)(c1ncc(C[N+]23CCC(CC2)[C@H](CSc2ccc(Cl)cc2)C3)o1)C1CCCCC1` [Example 110, (S)-3-(4-Chloro-phenylsulfanylmethyl)-1-[2-((R)cyclohexyl-hydroxy-phenyl-methyl)-oxazol-5-ylmethyl]-1-azonia-bicyclo[2.2.2]octane; bromide], the Ki was < 5 nM. `O[C@](c1ccccc1)(c1ncc(C[N+]23CCC(CC2)[C@H](CSc2cccc(F)c2)C3)o1)C1CCCCC1` [Example 111, (S)-1-[2-((R)—Cyclohexyl-hydroxy-phenyl-methyl)-oxazol-5-ylmethyl]-3-(3-fluoro-phenylsulfanylmethyl)-1-azonia-bicyclo[2.2.2]octane; bromide] was tested, and the Ki was < 5 nM. In the case of `C=C(C)CO[C@H]1C[N+]2(Cc3cnc([C@](O)(c4ccccc4)C4CCCCC4)o3)CCC1CC2` [Example 112, (R)-1-[2-((R)—Cyclohexyl-hydroxy-phenyl-methyl)-oxazol-5-ylmethyl]-3-(2-methyl-allyloxy)-1-azonia-bicyclo[2.2.2]octane; bromide], the Ki is reported as < 5 nM. With `C/C=C/CO[C@H]1C[N+]2(Cc3cnc([C@](O)(c4ccccc4)C4CCCCC4)o3)CCC1CC2` [Example 113, (R)-3-[((E)-But-2-enyl)oxy]-1-[2-((R)-cyclohexyl-hydroxy-phenyl-methyl)-oxazol-5-ylmethyl]-1-azonia-bicyclo[2.2.2]octane; bromide] the Ki was < 5 nM. `OC(c1ccccc1)(c1ccccc1)c1ncc(C[N+]23CCC(CC2)[C@@H](Oc2ccsc2)C3)o1` [Example 114, (R)-1-[2-(Hydroxy-diphenyl-methyl)-oxazol-5-ylmethyl]-3-(thiophen-3-yloxy)-1-azonia-bicyclo[2.2.2]octane; bromide] was tested, and the Ki was 5 to 20 nM.
